Measured values published in EP0876160B1, “LIGAND DIRECTED ENZYME PRODRUG THERAPY” (priority 1996, dated 1997).

Columns and labels:
[1] = system: human umbilical vein endothelial (Hu-V-ec) cells; test: VEGF-directed cytotoxicity assay, cell growth by [3H]-thymidine incorporation; assay type: cell-based
Procedure: (§1) Confluent Hu-V-ec cells were cultured in the absence (control, lane 1) or presence of 1mM CMDA prodrug (+ CMDA, lane 2) for 18 hours. After incubation, the cells were diluted into fresh dishes (at a dilution of 3 fold) and allowed to grow for a further 6 days after which time the survival of the cells was determined by [^3H] thymidine incorporation. The results are expressed in terms of the % growth in terms of the control, which were considered to represent 100% cell growth.
Confluent Hu-V-ec cells were cultured in the absence of any additions (control, lane 3) or in the presence of CPH6 (27 nM, lane 4), or of V115CPH6 (11nM, lane 5) for 30 min. The cells were then washed 6 times with fresh medium and incubated overnight in the presence of 1mM CMDA. The cells were re-plated at a dilution of 1/3 and allowed to grow for a further 4 days after which time the cell growth was estimated by [3H]thymidine incorporation. The results are expressed in terms of the % growth in terms of the control lane, which were considered to represent 100% cell growth.
The fusion proteins were assesed for their ability to direct the CMDA-dependent killing of cells which express specific receptors for VEGF on their surface. For this analysis, we employed human umbilical vein endothelial (Hu-V-ec) cells, which are dependent for growth on VEGF (Prog Growth Factor Res, 5, 89, 1994). […] The cells were incubated in the presence of CPH6, or V115CPH6 for 30 min to allow the fusion proteins to bind to the cell surface and then the cells were washed to remove unbound protein. CMDA was added and cell survival was determined by [3H]-thymidine incorporation.

[2] = system: NIH3T3 cells; test: Non-specific cytotoxicity assay, cell growth by [3H]-thymidine incorporation; assay type: cell-based
Procedure: as §1, with “Confluent NIH3T3” for “Confluent Hu-V-ec”, “prodrug (+CMDA,” for “prodrug (+ CMDA,”, “of 100” for “of 3”
Confluent NIH3T3 cells were cultured in the presence of 1mM CMDA prodrug in the absence of any additions (control, lane 3) or in the presence of the indicated fusion proteins (lanes 4-8). The additions were : lane 4, CPH6; lane 5, CPV161H6; lane 6, V161CPH6; lane 7, V115CPH6; lane 8, pEFCPV109H6. For each fusion, 0.3 to 0.9 nM of the fusions were added as determined by quantitative immunoprotein blotting. The cells were incubated and processed as in section A above for cell growth. […]
For the first assay, we wished to establish that CPH6 and the fusion proteins were able to direct prodrug dependent cyotoxicity of NIH3T3 cells, in a non-targeted manner. […] Samples of the purified proteins were added to NIH3T3 cells in the presence of the CMDA prodrug and the effects on cell viability were determined by measuring cell growth by [3H]-thymidine incorporation.

[3] = target: VEGF/CPG2 fusion protein V115CPH6 (VEGF amino acids 1-115 fused to CPG2, polyhistidine tag), SEQ ID No. 10 (UniProt P06621+P15692, form not given/N222Q/N264Q/N272Q); settings: substrate MTX; V115CPH6 expressed in Sf9 cells, Ni++-NTA purified; 25°C, pH 7.3
Excerpt: (§2) Using this protocol, CPH6, V161CPH6, V115CPH6 and CPV109H6 were all purified from Sf9 cells by Ni++-NTA-Agarose affinity chromatography as described above. These samples were used to determine the affinity of the CPG2 moiety for the substrate MTX.

[4] = target: VEGF/CPG2 fusion protein V161CPH6 (VEGF amino acids 1-161 fused to CPG2 amino acids 23-415, polyhistidine tag), SEQ ID No. 8 (UniProt P06621+P15692, form not given/N222Q/N264Q/N272Q); settings: substrate MTX; V161CPH6 expressed in Sf9 cells, Ni++-NTA purified; 25°C, pH 7.3
Excerpt: as §2

[5] = target: Carboxypeptidase G2 (CPG2) construct CPH6 (c-erbB2 signal peptide, CPG2 amino acids 23-415, three Asn -> Gln glycosylation-site mutations N222, 264 and 272 > Q, (Pseudomonas sp., UniProt P06621, N222Q/N264Q/N272Q)); settings: substrate MTX; CPH6 expressed in Sf9 cells, Ni++-NTA purified; 25°C, pH 7.3
Excerpt: as §2

[6] = target: CPG2/VEGF fusion protein CPV109H6 (CPG2 amino acids 23-415 fused via peptide spacer to VEGF amino acids 1-109, polyhistidine tag), SEQ ID No. 18 (UniProt P06621+P15692, form not given/N222Q/N264Q/N272Q); settings: substrate MTX; CPV109H6 expressed in Sf9 cells, Ni++-NTA purified; 25°C, pH 7.3
Excerpt: as §2

[7] = target: bacterially produced CPG2 (Carboxypeptidase G2, wild type) (Pseudomonas sp., UniProt P06621); settings: substrate MTX; cited from earlier work

Structure (SMILES) | sensitivity (growth rate) ([1]; 1mM CMDA alone, 18 hours) | growth rate of the cells ([1]; cells pre-incubated with CPH6 (27 nM) 30 min, washed, then 1mM CMDA overnight) | inhibition of cell growth ([1]; cells pre-incubated with V115CPH6 (11nM) 30 min, washed, then 1mM CMDA overnight) [%] | growth of cells ([2]; 1mM CMDA alone, 18 hours, then 6 days growth) | cell death ([2]; 1mM CMDA in the presence of sub-nanomolar (0.3 to 0.9 nM) CPH6 or each of the fusion proteins) | Km [3] [µM] | Km [4] [µM] | Km [5] [µM] | Km [6] [µM] | Km [7] [µM]
CS(=O)(=O)OCCN(CCCl)c1ccc(C(=O)N[C@@H](CCC(=O)O)C(=O)O)cc1 [CMDA, N-4-[(2-chloroethyl)(2-mesyloxyethyl)amino]benzoyl-L-glutamic acid] | not significantly sensitive | no significant affect on the growth rate | > 90 | does not significantly affect the growth | complete cell death |  |  |  |  | 
CN(Cc1cnc2nc(N)nc(N)c2n1)c1ccc(C(=O)N[C@@H](CCC(=O)O)C(=O)O)cc1 [MTX, Methotrexate] |  |  |  |  |  | 17 ± 1 | 18.2 ± 1.5 | 19.6 ± 3.2 | 9.1 ± 1.1 | ~10
